Results taken from ChEMBL document CHEMBL3124857, “Encoded library technology as a source of hits for the discovery and lead optimization of a potent and selective class of bactericidal direct inhibitors of Mycobacterium tuberculosis InhA” (J Med Chem, 2014).

Tested on: Mycobacterium tuberculosis
Assay: Selectivity for wild type Mycobacterium tuberculosis H37Rv ATCC 25618 over hygromycin-resistance Mycobacterium tuberculosis H37Rv ATCC 25618 overexpressing InhA
Type: functional

Which Selectivity ratio does the source give for `CCNC(=O)[C@@H]1C[C@@H](NC(=O)c2cc(CC)nn2C)CN1C(=O)c1coc2ccccc12` here?
The Selectivity ratio was 16.
